Reference: PMC8545107 (mBio, 2021)
pEC50: −log10 of the molar value. No end group written: not given here.

Legend:
[1] = target: gallocin gene promoter (PgllA) in S. gallolyticus subsp. gallolyticus UCN34 Δgsp pTCVΩPgllA-gfp (receptor BlpH); experiment: Gallocin induction reporter gene assay (PgllA-gfp); type: cell-based, Streptococcus gallolyticus subsp. gallolyticus; conditions: reporter strain UCN34 Δgsp pTCVΩPgllA-gfp; maximum GFP fluorescence normalized with OD600; 37°C; triplicate, three trials, sigmoidal curve fit
From the text: We first aimed at determining the active form of GSP in S. gallolyticus subsp. gallolyticus strain UCN34. GSP is derived from a 45-residue precursor encoded by gsp and is predicted to be processed to a 24-mer peptide by cleavage of the amino-terminal leader sequence after a double glycine motif and then exported to the extracellular environment by the BlpAB transporter. However, GSP was previously isolated as a 21-mer peptide from S. gallolyticus subsp. gallolyticus TX20005 ([10]). We first confirmed by mass spectrometry analysis that GSP isolated from culture supernatants of strain UCN34 was strictly identical to the 21-mer peptide previously purified from strain TX20005 (Fig. S1). […] Therefore, we chemically synthesized GSP 21-mer and GSP 24-mer peptides to test their efficiency in activating gallocin gene transcription. To do so, we used a reporter S. gallolyticus subsp. gallolyticus strain, UCN34, in which the endogenous gsp gene has been deleted and which contains a plasmid expressing gfp under the control of the gallocin gene promoter (PgllA) ([33]).
Fluorescence and absorbance measurements were recorded using a Biotek Synergy H1 microplate reader using Gen5 data analysis software (v. 3.03). Biological assays were performed in triplicate per trial. EC50s from three trials were calculated using GraphPad Prism software (v. 7.0) using a sigmoidal curve fit.
Stock solutions of peptides (1 mM) were prepared in dimethyl sulfoxide (DMSO) and stored at 4°C in sealed glass vials. […] Black polystyrene 96-well microtiter plates (Costar) were used for the GFP cell-based reporter assays.
Peptide stock solutions were serially diluted with DMSO in either 1:2, 1:3, or 1:5 dilutions, and 2 μl of the diluted solution was added to each of the wells in a black 96-well microtiter plate. Each concentration was tested in triplicate, with DMSO only used as a negative control. Screening of peptide analogs was conducted using the S. gallolyticus subsp. gallolyticus UCN34 Δgsp pTCVΩPgllA-gfp strain. An overnight culture was used to make a fresh 2-ml culture without EM using a 1:10 dilution on the day of the experiment and incubated in a CO2 incubator (37°C with 5% CO2) for 3 to 4 h to reach mid-log to late log phase of growth (OD600 = 0.6 to 0.9). A final 1:10 dilution was made on a larger scale (20 ml) without EM and used for the assay, where 198 μl diluted bacterial culture was added to each well of the microtiter plate containing peptides. Plates were incubated at 37°C with shaking at 200 rpm. Fluorescence (excitation, 485 nm; emission, 516 nm) and optical density at 600 nm (OD600) readings were recorded for each well using a plate reader. Measurements were taken 1 h after inoculation and were recorded every 20 to 30 min for up to 3 h to capture the maximum fluorescence signal. The maximum fluorescence signal was normalized with the OD600 value and used to construct dose curves to determine the EC50.

[2] = washed UCN34 Δgsp cells in sterile saline solution (0.9% [wt/vol] NaCl); conditions: S. gallolyticus subsp. gallolyticus UCN34 Δgsp, 37°C, up to 30 min
[3] = S. mutans ΔcomC washed cells in saline solution; conditions: S. mutans SMCC3 (ΔcomC), 37°C, up to 30 min
[4] = washed UCN34 ΔsepM cells in sterile saline solution (0.9% [wt/vol] NaCl); conditions: S. gallolyticus subsp. gallolyticus UCN34 ΔsepM, 37°C, up to 30 min

With DFLIVGPFDWLKKNHKPTKH [GSP-des-A21] the pEC50 [1] was < 6.00.

For DFLIVGPFDWLKKNHKPTK [GSP-des-H20-A21], the pEC50 [1] was < 6.00.

In the case of LKKNHKPTKHA [GSP-des-D1-W10], the pEC50 [1] was < 6.00.

With DFLIVGPFDWLKKNHKPTAHA [GSP K19A] the pEC50 [1] was 6.97.

With DFLIVGPFDALKKNHKPTKHA [GSP W10A] the pEC50 [1] was < 6.00.

In the case of DFLIVGPFDWLKKNHKPTKHA, the cleaved bond [2] was “L3-I4, 30 min” and the cleaved bond [3] was “L3-I4, 30 min”.

In the case of DFLIVGPFDWLKKNHKPT [GSP-des-K19-A21], the pEC50 [1] was < 6.00.

For KNKDFLIVGPFDWLKKNHKPTKHA, the cleaved bond [2] was “L3-I4, 30 min”, the not cleaved [2] was “Degradation of KNK-GSP to GSP was not observed (30 min)” and the cleaved bond [4] was “L3-I4, 30 min”. For the same sequence, the not cleaved [4] was “Degradation of KNK-GSP to GSP was not observed (30 min)”.
